Data published in PubChem BioAssay AID2060493 (Molecular Pharmacology Branch, DTP, NCI, 2025).

Test system: 616215-338-R-J1-PDC tumor spheroids, viability
Experiment: Anticancer human tumor 616215-338-R-J1-PDC patient-derived colon adenocarcinoma cell line growth inhibition [GQUAD]
Details: spheroids with HUVEC and MSC; for IC50: curve of first compound; for viability, T/C: stronger effect = lower value
In short: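 Tumor cells were grown as complex spheroids with HUVEC endothelial cells and mesenchymal stem cells as stroma. G-quadruplex stabilizers were combined with targeted agents over half-log dilutions from near the clinical Cmax, or from 10 microM.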

[1] = second compound 0.0316 µM, first compound 0.0316 µM
[2] = second compound 0.0316 µM, first compound 0.316 µM
[3] = second compound 0.1 µM, first compound 0.0316 µM
[4] = second compound 0.1 µM, first compound 0.316 µM
[5] = second compound 0.316 µM, first compound 0.0316 µM
[6] = second compound 0.316 µM, first compound 0.316 µM
[7] = second compound 1 µM, first compound 0.0316 µM
[8] = second compound 1 µM, first compound 0.316 µM
[9] = second compound 3.16 µM, first compound 0.0316 µM
[10] = second compound 3.16 µM, first compound 0.316 µM
[11] = second compound 10 µM, first compound 0.0316 µM
[12] = second compound 10 µM, first compound 0.316 µM
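Note: spheroids exposed to agents for 7 days before readout.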
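Throughout, for viability, T/C: percent viability relative to DMSO vehicle control wells taken as 100%.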

Structure (SMILES): Cn1ncnc1[C@H]1c2n[nH]c(=O)c3cc(F)cc(c23)N[C@@H]1c1ccc(F)cc1 + Cc1cnc(CNC(=O)c2c(=O)c3ccc(N4CCCN(C)CC4)nc3n3c2sc2ccccc23)cn1
- IC50 (second compound 0.0316 µM): > 316 nM
- IC50 (second compound 0.1 µM): 237 nM
- IC50 (second compound 0.316 µM): < 0.999 nM
- IC50 (second compound 1 µM): < 0.999 nM
- IC50 (second compound 3.16 µM): < 0.999 nM
- IC50 (second compound 10 µM): < 0.999 nM
- viability, T/C (second compound 0.0316 µM, first compound 0.000999 µM): 102%
- viability, T/C (second compound 0.0316 µM, first compound 0.00316 µM): 99.4%
- viability, T/C (second compound 0.0316 µM, first compound 0.00999 µM): 104%
- viability, T/C [1]: 94.8%
- viability, T/C (second compound 0.0316 µM, first compound 0.0999 µM): 86.5%
- viability, T/C [2]: 77.9%
- viability, T/C (second compound 0.1 µM, first compound 0.000999 µM): 68.2%
- viability, T/C (second compound 0.1 µM, first compound 0.00316 µM): 75.2%
- viability, T/C (second compound 0.1 µM, first compound 0.00999 µM): 77.9%
- viability, T/C [3]: 56.5%
- viability, T/C (second compound 0.1 µM, first compound 0.0999 µM): 58.5%
- viability, T/C [4]: 48.1%
- viability, T/C (second compound 0.316 µM, first compound 0.000999 µM): 40.9%
- viability, T/C (second compound 0.316 µM, first compound 0.00316 µM): 53.4%
- viability, T/C (second compound 0.316 µM, first compound 0.00999 µM): 44.3%
- viability, T/C [5]: 44.4%
- viability, T/C (second compound 0.316 µM, first compound 0.0999 µM): 48.4%
- viability, T/C [6]: 29.5%
- viability, T/C (second compound 1 µM, first compound 0.000999 µM): 28.2%
- viability, T/C (second compound 1 µM, first compound 0.00316 µM): 34.9%
- viability, T/C (second compound 1 µM, first compound 0.00999 µM): 27.3%
- viability, T/C [7]: 44.1%
- viability, T/C (second compound 1 µM, first compound 0.0999 µM): 33.2%
- viability, T/C [8]: 33.2%
- viability, T/C (second compound 3.16 µM, first compound 0.000999 µM): 34.9%
- viability, T/C (second compound 3.16 µM, first compound 0.00316 µM): 27.5%
- viability, T/C (second compound 3.16 µM, first compound 0.00999 µM): 26.4%
- viability, T/C [9]: 30.6%
- viability, T/C (second compound 3.16 µM, first compound 0.0999 µM): 29%
- viability, T/C [10]: 33.3%
- viability, T/C (second compound 10 µM, first compound 0.000999 µM): 31.2%
- viability, T/C (second compound 10 µM, first compound 0.00316 µM): 27.4%
- viability, T/C (second compound 10 µM, first compound 0.00999 µM): 30.1%
- viability, T/C [11]: 35.5%
- viability, T/C (second compound 10 µM, first compound 0.0999 µM): 27.4%
- viability, T/C [12]: 30.2%

Structure (SMILES): COc1ccc([C@@H](O)c2cc(-c3ncnc4cc(N5CCOCC5)ccc34)c(F)cc2Cl)nn1 + Cc1cnc(CNC(=O)c2c(=O)c3ccc(N4CCCN(C)CC4)nc3n3c2sc2ccccc23)cn1
- IC50 (second compound 0.0316 µM): 798 nM
- IC50 (second compound 0.1 µM): 770 nM
- IC50 (second compound 0.316 µM): < 31.6 nM
- IC50 (second compound 1 µM): < 31.6 nM
- IC50 (second compound 3.16 µM): < 31.6 nM
- IC50 (second compound 10 µM): < 31.6 nM
- viability, T/C [1]: 102%
- viability, T/C (second compound 0.0316 µM, first compound 0.1 µM): 92.4%
- viability, T/C [2]: 93.9%
- viability, T/C (second compound 0.0316 µM, first compound 1 µM): 39.3%
- viability, T/C (second compound 0.0316 µM, first compound 3.16 µM): 30.1%
- viability, T/C (second compound 0.0316 µM, first compound 10 µM): 25.3%
- viability, T/C [3]: 59.2%
- viability, T/C (second compound 0.1 µM, first compound 0.1 µM): 74.2%
- viability, T/C [4]: 61.2%
- viability, T/C (second compound 0.1 µM, first compound 1 µM): 42.2%
- viability, T/C (second compound 0.1 µM, first compound 3.16 µM): 39.9%
- viability, T/C (second compound 0.1 µM, first compound 10 µM): 24.6%
- viability, T/C [5]: 43.6%
- viability, T/C (second compound 0.316 µM, first compound 0.1 µM): 46.8%
- viability, T/C [6]: 43%
- viability, T/C (second compound 0.316 µM, first compound 1 µM): 27.9%
- viability, T/C (second compound 0.316 µM, first compound 3.16 µM): 26.4%
- viability, T/C (second compound 0.316 µM, first compound 10 µM): 14.6%
- viability, T/C [7]: 25.3%
- viability, T/C (second compound 1 µM, first compound 0.1 µM): 28.6%
- viability, T/C [8]: 30.5%
- viability, T/C (second compound 1 µM, first compound 1 µM): 21.8%
- viability, T/C (second compound 1 µM, first compound 3.16 µM): 22.8%
- viability, T/C (second compound 1 µM, first compound 10 µM): 7.7%
- viability, T/C [9]: 23.1%
- viability, T/C (second compound 3.16 µM, first compound 0.1 µM): 26.9%
- viability, T/C [10]: 30.1%
- viability, T/C (second compound 3.16 µM, first compound 1 µM): 25%
- viability, T/C (second compound 3.16 µM, first compound 3.16 µM): 15.9%
- viability, T/C (second compound 3.16 µM, first compound 10 µM): 3.64%
- viability, T/C [11]: 33.8%
- viability, T/C (second compound 10 µM, first compound 0.1 µM): 25.8%
- viability, T/C [12]: 32.3%
- viability, T/C (second compound 10 µM, first compound 1 µM): 20%
- viability, T/C (second compound 10 µM, first compound 3.16 µM): 15.4%
- viability, T/C (second compound 10 µM, first compound 10 µM): 3.43%
